The pEC50 is the negative decadic logarithm of the EC50, by convention in mol/L.

SMILES strings stand for the structures. pEC50: −log10 of the molar value.

In the first experiment the test system is HBsAg. Nature of the experiment: HBsAg assay: inhibition of HBsAg in HepG2.2.15 cells (chemiluminescence immunoassay of supernatant). The format is cell-based, hepatitis B virus. Particulars: Hepatitis B virus, HepG2.2.15, 144 h, read-out: sAg EC50, HepG2.2.15 cells; HBsAg in supernatant at day 6 after exposure to compound; 0.5% DMSO. The gist of the method:
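HepG2.2.15 cells treated with serially diluted compounds (0.5% DMSO), medium and compound refreshed after 2–3 days, supernatant harvested at day 6. Secreted HBsAg measured by chemiluminescence immunoassay; EC50 from dose-response curves, with parallel CellTiter-Glo viability at 5,000 cells/well.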
On to `COc1cc(C2CC2c2cnc(-c3ncccn3)c3ccccc23)ccc1F` (single isomer, unassigned) [Example 193, trans-4-(2-(4-Fluoro-3-methoxyphenyl)cyclopropyl)-1-(pyrimidin-2-yl)isoquinoline], for which the pEC50 was 4.37. On to `CN(C)C(=O)c1cc(C2CC2c2cnc(-c3ncccn3)nc2)ccc1Cl` (single isomer, unassigned) [Example 203, trans-5-(2-([2,2′-Bipyrimidin]-5-yl)cyclopropyl)-2-chloro-N,N-dimethylbenzamide], for which the pEC50 was 5.22. Regarding `CC(=O)Nc1cc(C2CC2c2cnc(-c3ncccn3)nc2)ccc1Cl` (single isomer, unassigned) [Example 205, trans-N-(5-(2-([2,2′-Bipyrimidin]-5-yl)cyclopropyl)-2-chlorophenyl)acetamide], the pEC50 was 6.29.

The same experiment, now with this note: read-out: sAg EC50; HepG2.2.15 cells; HBsAg in supernatant at day 6 after exposure to compound; 0.5% DMSO.
`COc1cc(C2CC2c2cnc(-c3ncccn3)nc2)cnc1OC` (single isomer, unassigned) [Example 184, trans-5-(2-(5,6-Dimethoxypyridin-3-yl)cyclopropyl)-2,2′-bipyrimidine]: the pEC50 was 5.96. As for `Fc1ccc(C2CC2c2cnc(-c3ncccn3)nc2)cc1OC(F)F` (single isomer, unassigned) [Example 185, trans-5-(2-(3-(Difluoromethoxy)-4-fluorophenyl)cyclopropyl)-2,2′-bipyrimidine], the pEC50 was 6.92. Same read-out and setting: the figure for `Fc1ccc(C2CC2c2cnc(-c3ncccn3)nc2)cc1OC(F)F` (single isomer, unassigned) [Example 186, trans-5-(2-(3-(Difluoromethoxy)-4-fluorophenyl)cyclopropyl)-2,2′-bipyrimidine] is 5.80. On to `CN1CCN(c2cc(C3CC3c3cnc(-c4ncccn4)nc3)ccc2F)CC1` (single isomer, unassigned) [Example 187, trans-5-(2-(4-Fluoro-3-(4-methylpiperazin-1-yl)phenyl)cyclopropyl)-2,2′-bipyrimidine], for which the pEC50 is 4.82. On to `CN1CCN(c2cc(C3CC3c3cnc(-c4ncccn4)nc3)ccc2F)CC1` (single isomer, unassigned) [Example 188, trans-5-(2-(4-Fluoro-3-(4-methylpiperazin-1-yl)phenyl)cyclopropyl)-2,2′-bipyrimidine], for which the negative-log EC50 (pEC50) is 5.40. For the compound `COc1c(F)ccc(C2CC2c2cnc(-c3ncccn3)nc2)c1F` (single isomer, unassigned) [Example 189, trans-5-(2-(2,4-Difluoro-3-methoxyphenyl)cyclopropyl)-2,2′-bipyrimidine], the pEC50 was 6.92. Same read-out and setting: for `COc1c(F)ccc(C2CC2c2cnc(-c3ncccn3)nc2)c1F` (single isomer, unassigned) [Example 190, trans-5-(2-(2,4-Difluoro-3-methoxyphenyl)cyclopropyl)-2,2′-bipyrimidine] the value was 5.89; for `COc1cc(C2CC2c2ccc(-c3ncccn3)nn2)ccc1F` (single isomer, unassigned) [Example 191, trans-3-(2-(4-Fluoro-3-methoxyphenyl)cyclopropyl)-6-(pyrimidin-2-yl)pyridazine], 5.70. Still for that read-out and setting: for `COc1cc(C2CC2c2ccc(-c3ncccn3)nn2)ccc1F` (single isomer, unassigned) [Example 192, trans-3-(2-(4-Fluoro-3-methoxyphenyl)cyclopropyl)-6-(pyrimidin-2-yl)pyridazine] the value was 4.31.

In the case of `COc1cc(C2CC2c2cnc(-c3ncccn3)c3ccccc23)ccc1F` (single isomer, unassigned) [Example 194, trans-4-(2-(4-Fluoro-3-methoxyphenyl)cyclopropyl)-1-(pyrimidin-2-yl)isoquinoline], the pEC50 is 4.31.

Consider `Fc1ccc(C2CC2c2cnc(-c3ncccn3)nc2)cc1N1CCCCC1` (single isomer, unassigned) [Example 195, trans-5-(2-(4-Fluoro-3-(piperidin-1-yl)phenyl)cyclopropyl)-2,2′-bipyrimidine], for which the pEC50 was 5.52.

`Fc1ccc(C2CC2c2cnc(-c3ncccn3)nc2)cc1N1CCCCC1` (single isomer, unassigned) [Example 196, trans-5-(2-(4-Fluoro-3-(piperidin-1-yl)phenyl)cyclopropyl)-2,2′-bipyrimidine]: the pEC50 is 6.68. Regarding `O=C1CCCN1c1cc(C2CC2c2cnc(-c3ncccn3)nc2)ccc1F` (single isomer, unassigned) [Example 197, trans-1-(5-(2-([2,2′-Bipyrimidin]-5-yl)cyclopropyl)-2-fluorophenyl)pyrrolidin-2-one], the pEC50 was 5.52.

As to `O=C1CCCN1c1cc(C2CC2c2cnc(-c3ncccn3)nc2)ccc1F` (single isomer, unassigned) [Example 198, trans-1-(5-(2-([2,2′-Bipyrimidin]-5-yl)cyclopropyl)-2-fluorophenyl)pyrrolidin-2-one], the pEC50 is 6.37. Consider `Clc1ccc(C2CC2c2cnc(-c3ncccn3)nc2)cc1N1CCCC1` (single isomer, unassigned) [Example 199, trans-5-(2-(4-Chloro-3-(pyrrolidin-1-yl)phenyl)cyclopropyl)-2,2′-bipyrimidine], for which the pEC50 was 6.85. Regarding `Clc1ccc(C2CC2c2cnc(-c3ncccn3)nc2)cc1N1CCCC1` (single isomer, unassigned) [Example 200, trans-5-(2-(4-Chloro-3-(pyrrolidin-1-yl)phenyl)cyclopropyl)-2,2′-bipyrimidine], the pEC50 is 7.24. Take `CNC(=O)c1cc(C2CC2c2cnc(-c3ncccn3)nc2)ccc1Cl` (single isomer, unassigned) [Example 201, trans-5-(2-([2,2′-Bipyrimidin]-5-yl)cyclopropyl)-2-chloro-N-methylbenzamide]: the pEC50 is 5.05.

`CNC(=O)c1cc(C2CC2c2cnc(-c3ncccn3)nc2)ccc1Cl` (single isomer, unassigned) [Example 202, trans-5-(2-([2,2′-Bipyrimidin]-5-yl)cyclopropyl)-2-chloro-N-methylbenzamide]: the pEC50 was 5.40.

For the compound `CN(C)C(=O)c1cc(C2CC2c2cnc(-c3ncccn3)nc2)ccc1Cl` (single isomer, unassigned) [Example 204, trans-5-(2-([2,2′-Bipyrimidin]-5-yl)cyclopropyl)-2-chloro-N,N-dimethylbenzamide], the pEC50 was 5.40. The same measure, in the same setting: the figure for `CC(=O)Nc1cc(C2CC2c2cnc(-c3ncccn3)nc2)ccc1Cl` (single isomer, unassigned) [Example 206, trans-N-(5-(2-([2,2′-Bipyrimidin]-5-yl)cyclopropyl)-2-chlorophenyl)acetamide] is 6.09.

In the case of `Fc1cc(C2CC2c2cnc(-c3ncccn3)nc2)cc(NC2CCCC2)c1F` (single isomer, unassigned) [Example 207, trans-5-(2-([2,2′-Bipyrimidin]-5-yl)cyclopropyl)-N-cyclopentyl-2,3-difluoroaniline], the negative-log EC50 (pEC50) was 6.12.

Take `Fc1cc(C2CC2c2cnc(-c3ncccn3)nc2)cc(NC2CCCC2)c1F` (single isomer, unassigned) [Example 208, trans-5-(2-([2,2′-Bipyrimidin]-5-yl)cyclopropyl)-N-cyclopentyl-2,3-difluoroaniline]: the pEC50 was 6.96.
